Results on 25 compounds are retold here after patent US10683290B2, “Tricyclic compounds as anticancer agents” (BRISTOL-MYERS SQUIBB COMPANY, priority 2015, dated 2020).

Molecules are shown by their SMILES.

The first experiment concerns the target BRD4 (Homo sapiens, UniProt O60885). As to the kind of experiment: biochemical. It is filed as binding. Conditions: one of the FRET assays described; read-out: FRET BRD4 IC50.
For `[2H]C([2H])([2H])c1nnn(C)c1-c1cc2c(cc1Cl)c1ncc(C(C)(C)O)cc1n2C(CCC)c1ncccc1F` (single isomer, unassigned) [Example 83, 2-{8-chloro-5-[1-(3-fluoropyridin-2-yl)butyl]-7-[4-(^2H3)methyl-1-methyl-1H-1,2,3-triazol-5-yl]-5H-pyrido[3,2-b]indol-3-yl}propan-2-ol], the IC50 was less than 5 nM.
Regarding `[2H]C([2H])([2H])c1nnn(C)c1-c1cc2c(cc1Cl)c1ncc(C(C)(C)O)cc1n2C(c1ncccc1F)C1CCOCC1` (single isomer, unassigned) [Example 75, 2-{8-Chloro-5-[(3-fluoropyridin-2-yl)(oxan-4-yl)methyl]-7-[4-(^2H3)methyl-1-methyl-1H-1,2,3-triazol-5-yl]-5H-pyrido[3,2-b]indol-3-yl}propan-2-ol], the half-inhibitory concentration (IC50) was less than 1500 nM.
Turning to `Cc1nnn(C)c1-c1cc2c(cc1F)c1ncc(C(C)(C)O)cc1n2[C@H](c1ccccc1)C1CCOCC1` [Example 19, 2-[7-(Dimethyl-1H-1,2,3-triazol-5-yl)-8-fluoro-5-[(S)-oxan-4-yl(phenyl)methyl]-5H-pyrido[3,2-b]indol-3-yl]propan-2-ol], the concentration for half-maximal inhibition (IC50) was less than 1500 nM.
Turning to `[2H]C([2H])([2H])c1nnn(C)c1-c1cc2c(cc1F)c1ncc(C(C)(C)O)cc1n2C(c1ccc(C)cn1)C1CCOCC1` (single isomer, unassigned) [Example 56, 2-{8-fluoro-7-[4-(^2H3)methyl-1-methyl-1H-1,2,3-triazol-5-yl]-5-[(5-methylpyridin-2-yl)(oxan-4-yl)methyl]-5H-pyrido[3,2-b]indol-3-yl}propan-2-ol], the IC50 is less than 5 nM.
In the case of `[2H]C([2H])([2H])c1nnn(C)c1-c1ccc2c3ncc(C(C)(C)O)cc3n(C(c3ncccc3F)C3CCOCC3)c2c1` (single isomer, unassigned) [Example 72, 2-{5-[(3-Fluoropyridin-2-yl)(oxan-4-yl)methyl]-7-[4-(^2H3)methyl-1-methyl-1H-1,2,3-triazol-5-yl]-5H-pyrido[3,2-b]indol-3-yl}propan-2-ol], the IC50 is less than 1 nM.
With `[2H]C([2H])([2H])c1nnn(C)c1-c1cc2c(cc1F)c1ncc(C(C)(C)O)cc1n2C(c1ccccn1)C1CCOCC1` (single isomer, unassigned) [Example 36, 2-{8-fluoro-7-[4-(^2H3)methyl-1-methyl-1H-1,2,3-triazol-5-yl}-5-[oxan-4-yl(pyridin-2-yl)methyl]-5H-pyrido[3,2-b]indol-3-yl]propan-2-ol], the IC50 was less than 1 nM.
As for `[2H]C([2H])([2H])c1nnn(C)c1-c1cc2c(cc1F)c1ncc(C(C)(C)O)cc1n2C(CC1COC1)c1ccccc1` (racemic) [Example 66, 2-{8-fluoro-7-[4-(^2H3)methyl-1-methyl-1H-1,2,3-triazol-5-yl]-5-[2-(oxetan-3-yl)-1-phenylethyl]-5H-pyrido[3,2-b]indol-3-yl}propan-2-ol], the IC50 is less than 1 nM.
Take `[2H]C([2H])([2H])c1nnn(C)c1-c1cc2c(cc1F)c1ncc(C(C)(C)O)cc1n2C(c1ncccn1)C1CCOCC1` (single isomer, unassigned) [Example 47, 2-{8-fluoro-7-[4-(^2H3)methyl-1-methyl-1H-1,2,3-triazol-5-yl]-5-[oxan-4-yl(pyrimidin-2-yl)methyl]-5H-pyrido[3,2-b]indol-3-yl}propan-2-ol]: the concentration for half-maximal inhibition (IC50) was less than 5 nM.
In the case of `[2H]C([2H])([2H])c1nnn(C)c1-c1cc2c(cc1F)c1ncc(C(C)(C)O)cc1n2C(CCOC)c1ccccc1` (single isomer, unassigned) [Example 63, 2-[8-fluoro-5-(3-methoxy-1-phenylpropyl)-7-[4-(^2H3)methyl-1-methyl-1H-1,2,3-triazol-5-yl]-5H-pyrido[3,2-b]indol-3-yl]propan-2-ol], the IC50 was less than 5 nM.
Still for that read-out and setting: as for `[2H]C([2H])([2H])c1nnn(C)c1-c1cc2c(cc1F)c1ncc(C(C)(C)O)cc1n2C(c1cc(C)on1)C1CCOCC1` (stereo not shown) [Example 35, 2-{8-Fluoro-5-[(5-methyl-1,2-oxazol-3-yl)(oxan-4-yl)methyl]-7-[4-(^2H3)methyl-1-methyl-1H-1,2,3-triazol-5-yl]-5H-pyrido[3,2-b]indol-3-yl}propan-2-ol], the figure is less than 1500 nM.
Still for that read-out and setting: with `Cc1nnn(C)c1-c1ccc2c3ncc(C(C)(C)O)cc3n(C(CCC(F)(F)F)c3ccccn3)c2c1` (single isomer, unassigned) [Example 7, 2-[7-(dimethyl-1H-1,2,3-triazol-5-yl)-5-[4,4,4-trifluoro-1-(pyridin-2-yl)butyl]-5H-pyrido[3,2-b]indol-3-yl]propan-2-ol] the figure was less than 5 nM; with `Cc1nnn(C)c1-c1ccc2c3ncc(C(C)(C)O)cc3n([C@H](c3ccccc3)C3CCOCC3)c2c1` [Example 8, 2-[7-(dimethyl-1H-1,2,3-triazol-5-yl)-5-[(S)-oxan-4-yl(phenyl)methyl]-5H-pyrido[3,2-b]indol-3-yl]propan-2-ol], less than 1 nM; with `[2H]C([2H])([2H])c1nnn(C)c1-c1cc2c(cc1Cl)c1ncc(C(C)(C)O)cc1n2[C@H](c1ccccc1)C1CCOCC1` [Example 77, 2-{8-chloro-7-[4-(^2H3)methyl-1-methyl-1H-1,2,3-triazol-5-yl]-5-[(S)-oxan-4-yl(phenyl)methyl]-5H-pyrido[3,2-b]indol-3-yl}propan-2-ol], less than 1500 nM.
Same read-out and setting: with `[2H]C([2H])([2H])c1nnn(C)c1-c1cc2c(cc1F)c1ncc(C(C)(C)O)cc1n2C(c1cc(C)ccn1)C1CCOCC1` (single isomer, unassigned) [Example 53, 2-{8-fluoro-7-[4-(^2H3)methyl-1-methyl-1H-1,2,3-triazol-5-yl]-5-[(4-methylpyridin-2-yl)(oxan-4-yl)methyl]-5H-pyrido[3,2-b]indol-3-yl}propan-2-ol] the figure was less than 1500 nM.
With `[2H]C([2H])([2H])c1nnn(C)c1-c1cc2c(cc1F)c1ncc(C(C)(C)O)cc1n2C(c1ccc(F)cn1)C1CCOCC1` (single isomer, unassigned) [Example 45, 2-{8-fluoro-5-[(5-fluoropyridin-2-yl)(oxan-4-yl)methyl}-7-[4-(^2H3)methyl-1-methyl-1H-1,2,3-triazol-5-yl]-5H-pyrido[3,2-b]indol-3-yl]propan-2-ol], the half-inhibitory concentration (IC50) was less than 5 nM.
On the same count and under the same terms, with `Cc1ccc2c(n1)c1c(C(N)=O)cc(-c3c(C)noc3C)cc1n2Cc1ccccc1` [Example 1, 5-Benzyl-7-(dimethyl-1,2-oxazol-4-yl)-2-methyl-5H-pyrido[3,2-b]indole-9-carboxamide] the figure was less than 1500 nM.
The same measure, in the same setting: as for `[2H]C([2H])([2H])c1nnn(C)c1-c1cc2c(cc1F)c1ncc(C(C)(C)O)cc1n2[C@H](c1ccccc1)C1CCOCC1` [Example 32, 2-{8-Fluoro-7-[4-(^2H3)methyl-1-methyl-1H-1,2,3-triazol-5-yl]-5-[(S)-(oxan-4-yl)(phenyl)methyl]-5H-pyrido[3,2-b]indol-3-yl}propan-2-ol], the figure is less than 1 nM.
For the compound `[2H]C([2H])([2H])c1nnn(C)c1-c1ccc2c3ncc(S(C)(=O)=O)cc3n([C@H](c3ccccc3)C3CCOCC3)c2c1` [Example 27, 5-{3-Methanesulfonyl-5-[(S)-oxan-4-yl(phenyl)methyl]-5H-pyrido[3,2-b]indol-7-yl}-4-(^2H3)methyl-1-methyl-1H-1,2,3-triazole], the half-maximal inhibitory concentration (IC50) is less than 5 nM.
In the case of `[2H]C([2H])([2H])c1nnn(C)c1-c1cc2c(cc1F)c1ncc(C(C)(C)O)cc1n2C(CCC)c1ccccn1` (single isomer, unassigned) [Example 49, 2-{8-fluoro-7-[4-(^2H3)methyl-1-methyl-1H-1,2,3-triazol-5-yl]-5-[1-(pyridin-2-yl)butyl]-5H-pyrido[3,2-b]indol-3-yl}propan-2-ol], the half-maximal inhibitory concentration (IC50) was less than 5 nM.
Take `[2H]C([2H])([2H])c1nnn(C)c1-c1cc2c(cc1F)c1ncc(C(C)(C)O)cc1n2C(c1ccccc1)C1COC1` (single isomer, unassigned) [Example 67, 2-{8-fluoro-7-[4-(^2H3)methyl-1-methyl-1H-1,2,3-triazol-5-yl]-5-[oxetan-3-yl(phenyl)methyl]-5H-pyrido[3,2-b]indol-3-yl}propan-2-ol]: the IC50 was less than 5 nM.
Still for that read-out and setting: with `[2H]C([2H])([2H])c1nnn(C)c1-c1cc2c(cc1F)c1ncc(C(C)(C)O)cc1n2C(c1ccc(C)cn1)C1CCOCC1` (single isomer, unassigned) [Example 57, 2-{8-fluoro-7-[4-(^2H3)methyl-1-methyl-1H-1,2,3-triazol-5-yl]-5-[(5-methylpyridin-2-yl)(oxan-4-yl)methyl]-5H-pyrido[3,2-b]indol-3-yl}propan-2-ol] the figure was less than 1500 nM; with `[2H]C([2H])([2H])c1nnn(C)c1-c1cc2c(cc1F)c1ncc(C(C)(C)O)cc1n2C(c1ncccc1C)C1CCOCC1` (single isomer, unassigned) [Example 42, 2-{8-fluoro-7-[4-(^2H3)methyl-1-methyl-1H-1,2,3-triazol-5-yl]-5-[(3-methylpyridin-2-yl)(oxan-4-yl)methyl}-5H-pyrido[3,2-b]indol-3-yl]propan-2-ol], less than 5 nM.
Consider `[2H]C([2H])([2H])c1nnn(C)c1-c1cc2c(cc1F)c1ncc(C(C)(C)O)cc1n2C(c1ncccc1F)C1CCOCC1` (stereo not shown) [Example 30, 2-{8-Fluoro-5-[(3-fluoropyridin-2-yl)(oxan-4-yl)methyl]-7-[4-(^2H3)methyl-1-methyl-1H-1,2,3-triazol-5-yl]-5H-pyrido[3,2-b]indol-3-yl}propan-2-ol], for which the half-maximal inhibitory concentration (IC50) was less than 1 nM.
The same measure, in the same setting: as for `Cc1nnn(C)c1-c1cc(F)c2c3ncc(C(C)(C)O)cc3n([C@H](c3ccccc3)C3CCOCC3)c2c1` [Example 11, 2-[7-(Dimethyl-1H-1,2,3-triazol-5-yl)-9-fluoro-5-[(S)-oxan-4-yl(phenyl)methyl]-5H-pyrido[3,2-b]indol-3-yl]propan-2-ol], the figure is less than 1 nM.

Still in this experiment, the particulars now being: read-out: FRET BRD4 IC50.
Take `[2H]C([2H])([2H])c1nnn(C)c1-c1ccc2c3ncc(C(C)(C)O)cc3n([C@H](c3ccccc3)C3CCOCC3)c2c1` [Example 16, 2-{7-[4-(^2H3)Methyl-1-methyl-1H-1,2,3-triazol-5-yl]-5-[(S)-oxan-4-yl(phenyl)methyl]-5H-pyrido[3,2-b]indol-3-yl}propan-2-ol]: the IC50 is less than 5 nM.
